Test results published in US7087021B2, “Methods of screening for genes and agents affecting cardiac function” (priority 2001, dated 2006).

Test system: Drosophila heart
Test: Effects of anesthesia on heart rate
Format: in vivo, Drosophila melanogaster
Details: for effect of anesthesia on heart rate (in words): anesthetized Drosophila
Excerpt: […] The flies are removed from the vial as soon as they are immobile.
A more preferred aspect the microscope is a Nikon Diaphot-TMD inverted microscope, with Nomarski (DIC) optics (without analyzer) and a 10×(N.A. 0.25) objective. Preferably, images are obtained by closing the field diaphragm, so that the light-beam is concentrated on the first ventricle of the fly's heart, and the intensity of the light-beam is increased to the maximum. Most preferably, the flies are positioned on their backs, approximately perpendicular to the light path, and fixed in this position by mounting the spread wings on a glass slide with double-stick tape. Images of the first cardiac ventricle are recorded using a Sony DXC-101 video camera on VHS tape, or using a similar recording apparatus, and the heart rate is measured from slow-motion replays. End-diastolic and end-systolic dimensions are measured on still images at the mid-point between the two major transversal tracheal tubes passing over the first cardiac ventricle. The images can also be analyzed by appropriate image analysis software. In certain aspects of the present invention semi-automated digital image processing is used to measure heart rate and its variation directly from video signals recorded in a single fly or multiple flies. Automated detection allows parameters such as heart rate variability to be detected in a single fly. […] For each fly 2-second video sequences (60 frames each) 10 times consecutively are acquired. […] After applying a low pass filter to reduce noise in the time-space signal, heart rate is estimated by automated counting of the peaks in the signal. […] An average and a standard deviation of the repetitions in the same fly, for example (i.e. about 10 repetitions) are obtained and the coefficient of variation is calculated (Armitage P, Berry G. Statistical Methods in Medical Research. 3rd ed. Oxford: Blackwell Scientific; 1994).
CO2 the most commonly employed anesthetic for Drosophila.

CCN(CC)CC [triethylamine]
effect of anesthesia on heart rate (in words): not cause significant changes in heart rate
heart rate immediately after anesthesia (older flies, 48 days, n=7, first value): 213±6 beats per minute
heart rate after recovery under the same conditions (older flies, 48 days, n=7, second value): 211±11 beats per minute
heart rate immediately after anesthesia (young flies, 10 days, n=6, first value): 283±6 beats per minute
heart rate after recovery under the same conditions (young flies, 10 days, n=6, second value): 282±4 beats per minute

CCOCC [Ethyl-ether]
effect of anesthesia on heart rate (in words): depress heart rate
heart rate immediately after anesthesia (immediately after ether anesthesia, n=5): 120±19 beats per minute
heart rate after 30–40 min when leg movements began to return (same flies after 30–40 min, n=5, p=0.001): 248±11 beats per minute

O=C=O [CO2]
effect of anesthesia on heart rate (in words): cardiac arrest within a few seconds
resumption of heart beat after cessation of gas exposure (n=10): 20 to 30 s
